We go through 19 compounds from US8785429B2, “Dihydropyrrolonaphthyridinone compounds as inhibitors of JAK” (Takeda Pharmaceutical Company Limited, priority 2009, dated 2014).

Experiment [1] has as its target T1, JAK3 (Homo sapiens, UniProt P52333).
T1 construct: purchased Invitrogen
T1 sequence (P52333 1-1124): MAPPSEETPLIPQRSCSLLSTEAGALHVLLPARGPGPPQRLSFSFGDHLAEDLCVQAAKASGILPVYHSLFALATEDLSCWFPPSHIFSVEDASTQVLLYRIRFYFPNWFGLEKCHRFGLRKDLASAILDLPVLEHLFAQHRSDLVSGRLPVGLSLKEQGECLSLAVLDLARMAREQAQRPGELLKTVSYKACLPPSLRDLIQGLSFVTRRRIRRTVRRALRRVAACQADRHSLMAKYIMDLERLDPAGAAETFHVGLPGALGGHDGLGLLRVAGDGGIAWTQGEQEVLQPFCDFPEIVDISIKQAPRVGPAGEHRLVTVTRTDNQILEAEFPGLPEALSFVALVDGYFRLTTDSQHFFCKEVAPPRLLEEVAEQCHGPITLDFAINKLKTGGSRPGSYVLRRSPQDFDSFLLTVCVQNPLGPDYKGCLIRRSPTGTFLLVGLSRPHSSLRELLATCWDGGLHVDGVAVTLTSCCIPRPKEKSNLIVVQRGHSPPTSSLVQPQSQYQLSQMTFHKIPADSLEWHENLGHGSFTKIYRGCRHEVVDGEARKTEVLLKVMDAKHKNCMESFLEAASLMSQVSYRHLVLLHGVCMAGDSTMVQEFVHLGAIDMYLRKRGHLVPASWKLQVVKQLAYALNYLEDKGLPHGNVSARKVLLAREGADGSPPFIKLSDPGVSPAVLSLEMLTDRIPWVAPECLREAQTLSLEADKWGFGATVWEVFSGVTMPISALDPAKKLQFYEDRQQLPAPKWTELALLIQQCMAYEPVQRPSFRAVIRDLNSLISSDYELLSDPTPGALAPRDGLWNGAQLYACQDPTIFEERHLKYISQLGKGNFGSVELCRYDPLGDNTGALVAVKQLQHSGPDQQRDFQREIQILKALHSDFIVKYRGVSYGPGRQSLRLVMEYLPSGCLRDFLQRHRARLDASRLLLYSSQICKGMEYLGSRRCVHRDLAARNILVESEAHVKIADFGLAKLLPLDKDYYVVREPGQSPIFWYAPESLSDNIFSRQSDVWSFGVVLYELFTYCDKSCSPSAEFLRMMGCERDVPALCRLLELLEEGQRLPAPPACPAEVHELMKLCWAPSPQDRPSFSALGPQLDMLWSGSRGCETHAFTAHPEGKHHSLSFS
The experiment can be described thus: Assay for JAK3 Inhibition (phosphorylation of FAM-labeled substrate, Caliper LC-3000). The class given is biochemical. To be noted: −log10(IC50), IC50 is the molar concentration at 50% inhibition; read-out: JAK3 pIC50 (converted). Here is the method:
(§1) A compound's ability to inhibit JAK activity may be assessed using a variety of methods, including in vitro and in vivo assays. The following in vitro assays measure a test compound's ability to inhibit JAK2- and JAK3-mediated phosphorylation of FAM-labeled JAK-specific substrates.
(§2) Purified JAK2 and JAK3 proteins were purchased from Invitrogen. JAK2 and JAK3 inhibition is determined using a black 384-well-plate format in buffer containing 50 mM HEPES, 10 mM NaCl, 10 mM MgCl2, 0.2 mM EDTA, 0.01% EDA (Brij® 35), 1 mM DTT, 0.1 mg/mL BSA at pH 7.3. Each test compound is prepared in DMSO using 2-fold serial dilutions for 11 data points and is added to the buffer so that each dilution contains 3% DMSO.
To each well is added 2 μL of 3 μM 5FAM-KKKKEEIYFFFG-NH2 and 15 μM ATP (in buffer), 2 μL of diluted test compound (3% DMSO in medium), and 2 μL of 1.2 nM JAK3 in buffer. The reaction mixture is incubated at room temperature for 60 min and is quenched by adding 50 mM HEPES, 30 mM EDTA, and 0.1% Tx-100 (pH 7.3). To quantify the fluorescent-labeled substrate and product following reaction, the test plate is loaded on a Caliper LC-3000, which measures percent of conversion by microfluidic-based separation.
(§3) Corresponding IC50 values are calculated by non-linear curve fitting of the compound concentrations and percent of inhibition to the standard IC50 equation.

Experiment [2] has as its target T2, JAK2 (Homo sapiens, UniProt O60674).
T2 construct: purchased Invitrogen
The experiment in a line: Assay for JAK2 Inhibition (phosphorylation of FAM-labeled substrate, Caliper LC-3000). In kind it is biochemical. The following applies: −log10(IC50), IC50 is the molar concentration at 50% inhibition; read-out: JAK2 pIC50 (converted). How it is done:
as §1, §2
To each well is added 2 μL of 3 μM 5FAM-KKKKEEIYFFFG-NH2 and 45 μM ATP (in buffer), 2 μL of diluted test compound (3% DMSO in medium), and 2 μL of 0.6 nM JAK2 in buffer. The reaction mixture is incubated at room temperature for 60 min and is quenched by adding 50 mM HEPeX, 30 mM EDTA, and 0.1% Tx-100 (pH 7.3). To quantify the fluorescent-labeled substrate and product following reaction, the test plate is loaded on a Caliper LC-3000, which measures percent of conversion by microfluidic-based separation.
as §3

T2 sequence (O60674 whole entry): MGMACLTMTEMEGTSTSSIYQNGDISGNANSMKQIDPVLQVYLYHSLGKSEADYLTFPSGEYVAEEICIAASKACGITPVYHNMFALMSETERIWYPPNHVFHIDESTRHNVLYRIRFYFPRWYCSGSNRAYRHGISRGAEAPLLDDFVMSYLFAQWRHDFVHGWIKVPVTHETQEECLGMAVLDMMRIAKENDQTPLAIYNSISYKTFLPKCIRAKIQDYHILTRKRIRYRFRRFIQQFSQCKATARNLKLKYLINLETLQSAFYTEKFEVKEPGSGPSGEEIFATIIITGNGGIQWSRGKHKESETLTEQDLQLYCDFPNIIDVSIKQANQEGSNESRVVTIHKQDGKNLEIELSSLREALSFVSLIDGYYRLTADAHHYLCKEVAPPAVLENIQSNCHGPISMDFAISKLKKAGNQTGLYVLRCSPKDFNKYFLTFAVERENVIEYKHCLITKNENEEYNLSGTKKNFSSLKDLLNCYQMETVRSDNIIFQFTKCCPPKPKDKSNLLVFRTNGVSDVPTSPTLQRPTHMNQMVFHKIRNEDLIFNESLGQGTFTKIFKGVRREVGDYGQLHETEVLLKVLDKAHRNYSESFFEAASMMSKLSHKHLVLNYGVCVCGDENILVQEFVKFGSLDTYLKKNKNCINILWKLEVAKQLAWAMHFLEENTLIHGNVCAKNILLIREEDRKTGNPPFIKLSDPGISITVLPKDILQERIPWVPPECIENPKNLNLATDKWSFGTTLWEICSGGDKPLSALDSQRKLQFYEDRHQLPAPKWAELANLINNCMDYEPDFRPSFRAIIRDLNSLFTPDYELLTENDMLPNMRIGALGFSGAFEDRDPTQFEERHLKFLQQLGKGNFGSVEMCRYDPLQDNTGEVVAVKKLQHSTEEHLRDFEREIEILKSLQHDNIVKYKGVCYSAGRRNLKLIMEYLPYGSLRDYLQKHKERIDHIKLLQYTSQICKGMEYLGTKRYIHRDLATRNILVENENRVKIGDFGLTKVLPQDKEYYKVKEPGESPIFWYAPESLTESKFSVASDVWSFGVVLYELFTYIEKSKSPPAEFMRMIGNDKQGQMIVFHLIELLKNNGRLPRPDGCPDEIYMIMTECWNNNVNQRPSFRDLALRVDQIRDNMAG

With `N#CC[C@H](C(=O)NC1CCCC1)N1Cc2c(Cl)cnc3[nH]cc(c23)C1=O` [Example 30, (R)-2-(6-chloro-3-oxopyrrolo[4,3,2-de][2,6]naphthyridin-4(1H,3H,5H)-yl)-3-cyano-N-cyclopentylpropanamide], the IC50 in experiment [1] was 1260 nM; in experiment [2], 3160 nM.

Regarding `O=C1c2c[nH]c3nccc(c23)CN1C1(C(=O)NC2CCCC2)CCCC1` [Example 31, N-cyclopentyl-1-(3-oxopyrrolo[4,3,2-de][2,6]naphthyridin-4(1H,3H,5H)-yl)cyclopentanecarboxamide], the IC50 in experiment [1] and in experiment [2] was 20000 nM in each case.

`CC(C)[C@H](C(=O)NCC#N)N1Cc2c(Cl)cnc3[nH]cc(c23)C1=O` [Example 32, (R)-2-(6-chloro-3-oxopyrrolo[4,3,2-de][2,6]naphthyridin-4(1H,3H,5H)-yl)-N-(cyanomethyl)-3-methylbutanamide]: the IC50 in experiment [1] was 10 nM; in experiment [2], 200 nM.

In the case of `CC(C)[C@H](C(=O)N1CCC(C#N)C1)N1Cc2c(Cl)cnc3[nH]cc(c23)C1=O` (stereo partly drawn) [Example 33, 1-((R)-2-(6-chloro-3-oxopyrrolo[4,3,2-de][2,6]naphthyridin-4(1H,3H,5H)-yl)-3-methylbutanoyl)pyrrolidine-3-carbonitrile], the IC50 in experiment [1] is 39.8 nM; in experiment [2], 794 nM.

On to `CC(C)[C@H](C(=O)N1CCC(C#N)CC1)N1Cc2c(Cl)cnc3[nH]cc(c23)C1=O` [Example 34, (R)-1-(2-(6-chloro-3-oxopyrrolo[4,3,2-de][2,6]naphthyridin-4(1H,3H,5H)-yl)-3-methylbutanoyl)piperidine-4-carbonitrile], for which the IC50 in experiment [1] was 15.8 nM; in experiment [2] it was 251 nM.

Turning to `CC(C)[C@H](C(=O)Nc1ccc(C#N)cc1)N1Cc2c(Cl)cnc3[nH]cc(c23)C1=O` [Example 35, (R)-2-(6-chloro-3-oxopyrrolo[4,3,2-de][2,6]naphthyridin-4(1H,3H,5H)-yl)-N-(4-cyanophenyl)-3-methylbutanamide], the IC50 in experiment [1] is 316 nM; in experiment [2], 2510 nM.

Turning to `CC(C)[C@H](C(=O)Nc1cccc(C#N)c1)N1Cc2c(Cl)cnc3[nH]cc(c23)C1=O` [Example 36, (R)-2-(6-chloro-3-oxopyrrolo[4,3,2-de][2,6]naphthyridin-4(1H,3H,5H)-yl)-N-(3-cyanophenyl)-3-methylbutanamide], the results for the IC50 in experiment [1] and in experiment [2] were 126 nM and 1000 nM, respectively.

With `CC[C@@H](CC#N)NC(=O)[C@@H](C(C)C)N1Cc2c(Cl)cnc3[nH]cc(c23)C1=O` [Example 37, (R)-2-(6-chloro-3-oxopyrrolo[4,3,2-de][2,6]naphthyridin-4(1H,3H,5H)-yl)-N—((S)-1-cyanobutan-2-yl)-3-methylbutanamide], the IC50 was 63.1 nM in experiment [1] and 1580 nM in experiment [2].

In the case of `CC[C@H](CC#N)NC(=O)[C@@H](C(C)C)N1Cc2c(Cl)cnc3[nH]cc(c23)C1=O` [Example 38, (R)-2-(6-chloro-3-oxopyrrolo[4,3,2-de][2,6]naphthyridin-4(1H,3H,5H)-yl)-N—((R)-1-cyanobutan-2-yl)-3-methylbutanamide], the IC50 is 31.6 nM in experiment [1] and 1000 nM in experiment [2].

For `CC(C)[C@H](C(=O)N1CC(C#N)C1)N1Cc2c(Cl)cnc3[nH]cc(c23)C1=O` [Example 39, (R)-1-(2-(6-chloro-3-oxopyrrolo[4,3,2-de][2,6]naphthyridin-4(1H,3H,5H)-yl)-3-methylbutanoyl)azetidine-3-carbonitrile], the IC50 in experiment [1] was 2 nM; in experiment [2], 31.6 nM.

Consider `CC(C)(C)[C@H](C(=O)NCCC#N)N1Cc2c(Cl)cnc3[nH]cc(c23)C1=O` [Example 40, (R)-2-(6-chloro-3-oxopyrrolo[4,3,2-de][2,6]naphthyridin-4(1H,3H,5H)-yl)-N-(2-cyanoethyl)-3,3-dimethylbutanamide], for which the IC50 in experiment [1] is 50.1 nM; in experiment [2] it was 1260 nM.

Turning to `CC(C)(C)[C@H](C(=O)N1CC(C#N)C1)N1Cc2c(Cl)cnc3[nH]cc(c23)C1=O` [Example 41, (R)-1-(2-(6-chloro-3-oxopyrrolo[4,3,2-de][2,6]naphthyridin-4(1H,3H,5H)-yl)-3,3-dimethylbutanoyl)azetidine-3-carbonitrile], the values for the IC50 in experiment [1] and in experiment [2] were 3.98 nM and 50.1 nM, respectively.

Turning to `CC(C)[C@H](C(=O)N1CC(C#N)C1)N1Cc2c(F)cnc3[nH]cc(c23)C1=O` [Example 42, (R)-1-(2-(6-fluoro-3-oxopyrrolo[4,3,2-de][2,6]naphthyridin-4(1H,3H,5H)-yl)-3-methylbutanoyl)azetidine-3-carbonitrile], the IC50 in experiment [1] is 6.31 nM; in experiment [2] it was 126 nM.

In the case of `CC(C)[C@H](C(=O)N(C)CCC#N)N1Cc2c(F)cnc3[nH]cc(c23)C1=O` [Example 43], the IC50 in experiment [1] was 794 nM; in experiment [2], 12600 nM.

In the case of `CC(C)[C@H](C(=O)NC1CCOC1)N1Cc2c(F)cnc3[nH]cc(c23)C1=O` (stereo partly drawn) [Example 44, (2R)-2-(6-fluoro-3-oxopyrrolo[4,3,2-de][2,6]naphthyridin-4(1H,3H,5H)-yl)-3-methyl-N-(tetrahydrofuran-3-yl)butanamide], the results for the IC50 in experiment [1] and in experiment [2] were 126 nM and 1580 nM, respectively.

With `CC(C)[C@H](C(=O)NC1CCS(=O)(=O)C1)N1Cc2c(F)cnc3[nH]cc(c23)C1=O` (stereo partly drawn) [Example 45, (R)-2-(6-fluoro-3-oxopyrrolo[4,3,2-de][2,6]naphthyridin-4(1H,3H,5H)-yl)-3-methyl-N-(1,1-dioxidotetrahydrothien-3-yl)butanamide], the IC50 in experiment [1] is 63.1 nM; in experiment [2] it was 2000 nM.

Take `CC(C)[C@H](C(=O)NCCS(C)(=O)=O)N1Cc2c(F)cnc3[nH]cc(c23)C1=O` [Example 46, (R)-2-(6-fluoro-3-oxopyrrolo[4,3,2-de][2,6]naphthyridin-4(1H,3H,5H)-yl)-3-methyl-N-(2-(methylsulfonyl)ethyl)butanamide]: the IC50 in experiment [1] is 251 nM; in experiment [2] it was 1580 nM.

As for `CC(C)[C@H](C(=O)NC1CCS(=O)(=O)CC1)N1Cc2c(F)cnc3[nH]cc(c23)C1=O` [Example 47, (R)—N-(1,1-dioxidotetrahydro-2H-thiopyran-4-yl)-2-(6-fluoro-3-oxopyrrolo[4,3,2-de][2,6]naphthyridin-4(1H,3H,5H)-yl)-3-methylbutanamide], the figures for the IC50 in experiment [1] and in experiment [2] were 126 nM and 2510 nM, respectively.

As to `CC(C)[C@H](C(=O)N1CCS(=O)(=O)CC1)N1Cc2c(F)cnc3[nH]cc(c23)C1=O` [Example 48, 4-{(1R)-1-[(1,1-dioxidothiomorpholin-4-yl)carbonyl]-2-methylpropyl}-6-fluoro-4,5-dihydropyrrolo[4,3,2-de][2,6]naphthyridin-3(1H)-one], the IC50 in experiment [1] was 251 nM; in experiment [2] it was 5010 nM.
